One assay deals with T1, hα2A receptor (Homo sapiens, UniProt P08913).
T1 construct: expressed in transfected cells; host or cells: CHO cells, stably transfected; membrane preparation
T1 sequence (P08913 1-465): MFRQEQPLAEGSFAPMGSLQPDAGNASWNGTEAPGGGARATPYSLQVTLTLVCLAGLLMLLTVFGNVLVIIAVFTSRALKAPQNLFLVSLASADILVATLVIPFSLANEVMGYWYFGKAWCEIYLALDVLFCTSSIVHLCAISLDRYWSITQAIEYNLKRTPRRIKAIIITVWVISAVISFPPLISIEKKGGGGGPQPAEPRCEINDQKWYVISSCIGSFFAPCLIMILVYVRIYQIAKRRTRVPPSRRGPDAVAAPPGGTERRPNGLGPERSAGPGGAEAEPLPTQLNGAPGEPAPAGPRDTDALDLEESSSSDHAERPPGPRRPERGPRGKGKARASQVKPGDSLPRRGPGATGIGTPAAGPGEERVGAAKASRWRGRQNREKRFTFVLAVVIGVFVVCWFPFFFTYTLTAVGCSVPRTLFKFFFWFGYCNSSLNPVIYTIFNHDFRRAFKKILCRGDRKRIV
The assay is described as follows: Radioligand binding experiment for α2A-adrenoceptor ([3H]raulwolscine, CHO cell membranes). As to conditions: [3H]raulwolscine binding; for IC50: read-out: h-α2A pIC50 (converted). Here is the method: (§1) The interaction of a compound of Formula (I) with α2-adrenoceptor receptors was assessed in in vitro radioligand binding experiments. In general, a low concentration of a radioligand with a high binding affinity for a particular receptor or transporter is incubated with a sample of a tissue preparation enriched in a particular receptor or transporter or with a preparation of cells expressing cloned human receptors in a buffered medium. During the incubation, the radioligand binds to the receptor or transporter. When equilibrium of binding is reached, the receptor bound radioactivity is separated from the non-bound radioactivity, and the receptor- or transporter-bound activity is counted. The interaction of the test compounds with the receptor is assessed in competition binding experiments. Various concentrations of the test compound are added to the incubation mixture containing the receptor- or transporter preparation and the radioligand. The test compound in proportion to its binding affinity and its concentration inhibits binding of the radioligand. The radioligand used for hα2A and hα2C receptor binding was [^3H]-raulwolscine.
(§2) CHO cells, stabile transfected with human adrenergic-α2A and α2C receptor cDNA, were cultured in Dulbecco's Modified Eagle's Medium (DMEM)/Nutrient mixture Ham's F12 (ratio 1:1)(Gibco, Gent-Belgium) supplemented with 10% heat inactivated fetal calf serum (Life Technologies, Merelbeke-Belgium) and antibiotics (100 IU/ml penicillin G, 100 μg/ml streptomycin sulphate, 110 μg/ml pyruvic acid and 100 μg/ml L-glutamine). One day before collection, cells were induced with 5 mM sodiumbutyrate. Upon 80-90% of confluence, cells were scraped in phosphate buffered saline without Ca^2+ and Mg^2+ and collected by centrifugation at 1500×g for 10 minutes. The cells were homogenised in Tris-HCl 50 mM using an Ultraturrax homogenizer and centrifuged for 10 minutes at 23,500×g. The pellet was washed once by resuspension and rehomogenization and the final pellet was resuspended in Tris-HCl, divided in 1 ml aliquots and stored at −70° C.
(§3) Membranes were thawed and re-homogenized in incubation buffer (glycylglycine 25 mM, pH 8.0). […] Filters were rinsed extensively with ice-cold rinsing buffer (Tris-HCl 50 mM pH 7.4). Filter-bound radioactivity was determined by scintillation counting in a Topcount (Packard, Meriden, Conn.) and results were expressed as counts per minute (cpm). Non-specific binding was determined in the presence of 1 μM oxymetazoline for the hα2A receptor and 1 μM spiroxatrine for hα2C receptor.
(§4) Data from assays in the presence of compound were calculated as a percentage of total binding measured in the absence of test compound. Inhibition curves, plotting percent of total binding versus the log value of the concentration of the test compound, were automatically generated, and sigmoidal inhibition curves were fitted using non-linear regression. The pIC50 values of test compounds were derived from individual curves.

Another assay concerns the target T2, hα2C receptor (Homo sapiens, UniProt P18825).
T2 construct: expressed in transfected cells; host or cells: CHO cells, stably transfected; membrane preparation
T2 sequence (P18825 1-462): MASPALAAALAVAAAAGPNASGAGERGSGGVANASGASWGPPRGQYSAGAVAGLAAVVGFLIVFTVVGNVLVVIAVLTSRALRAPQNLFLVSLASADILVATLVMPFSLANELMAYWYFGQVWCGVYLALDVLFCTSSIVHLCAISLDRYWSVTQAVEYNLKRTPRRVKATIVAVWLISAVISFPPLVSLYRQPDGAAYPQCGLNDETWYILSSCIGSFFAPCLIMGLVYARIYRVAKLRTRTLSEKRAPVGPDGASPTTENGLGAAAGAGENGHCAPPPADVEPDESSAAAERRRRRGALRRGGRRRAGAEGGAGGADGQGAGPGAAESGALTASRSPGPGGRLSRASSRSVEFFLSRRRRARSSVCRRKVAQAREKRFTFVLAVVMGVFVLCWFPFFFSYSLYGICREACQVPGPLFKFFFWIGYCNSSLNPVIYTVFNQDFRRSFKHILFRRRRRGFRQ
The assay is described as follows: Radioligand binding experiment for α2C-adrenoceptor ([3H]raulwolscine, CHO cell membranes). As to conditions: [3H]raulwolscine binding; for IC50: read-out: h-α2C pIC50 (converted). Here is the method: as §1, §2, §3, §4

Another assay concerns the target T3, 5HT-Transporter (Homo sapiens, UniProt P31645).
T3 construct: Human platelet membranes (Oceanix Biosciences Corporation, Hanover, Md., USA) were thawed; tissue Oceanix Biosciences Corporation, Hanover, Md., USA; host or cells: human platelet membranes
The assay is described as follows: Binding experiment for the 5HT-transporter ([3H]paroxetine, human platelet membranes). Particulars: [3H]paroxetine 0.5 nM; for IC50: read-out: h-5HTT pIC50 (converted). Here is the method: as §1
Human platelet membranes (Oceanix Biosciences Corporation, Hanover, Md., USA) were thawed, diluted in buffer (Tris-HCl 50 mM, 120 mM NaCl and 5 mM KCl) and quickly (max 3 s) homogenised with an Ultraturrax homogenizer. […] Incubation was stopped by rapid filtration of the incubation mixture over GF/B filters, pre-wetted with 0.1% polyethyleneamine, using a Filtermate196 harvester (Packard, Meriden, Conn.). Filters were rinsed extensively with ice-cold buffer and radioactivity on the filters was counted in a Topcount liquid scintillation counter (Packard, Meriden, Conn.). Data were expressed as cpm. Imipramine (at 1 μM final concentration) was used to determine the non-specific binding.
as §4

Some results are limits rather than exact numbers.

T3 sequence (P31645 whole entry): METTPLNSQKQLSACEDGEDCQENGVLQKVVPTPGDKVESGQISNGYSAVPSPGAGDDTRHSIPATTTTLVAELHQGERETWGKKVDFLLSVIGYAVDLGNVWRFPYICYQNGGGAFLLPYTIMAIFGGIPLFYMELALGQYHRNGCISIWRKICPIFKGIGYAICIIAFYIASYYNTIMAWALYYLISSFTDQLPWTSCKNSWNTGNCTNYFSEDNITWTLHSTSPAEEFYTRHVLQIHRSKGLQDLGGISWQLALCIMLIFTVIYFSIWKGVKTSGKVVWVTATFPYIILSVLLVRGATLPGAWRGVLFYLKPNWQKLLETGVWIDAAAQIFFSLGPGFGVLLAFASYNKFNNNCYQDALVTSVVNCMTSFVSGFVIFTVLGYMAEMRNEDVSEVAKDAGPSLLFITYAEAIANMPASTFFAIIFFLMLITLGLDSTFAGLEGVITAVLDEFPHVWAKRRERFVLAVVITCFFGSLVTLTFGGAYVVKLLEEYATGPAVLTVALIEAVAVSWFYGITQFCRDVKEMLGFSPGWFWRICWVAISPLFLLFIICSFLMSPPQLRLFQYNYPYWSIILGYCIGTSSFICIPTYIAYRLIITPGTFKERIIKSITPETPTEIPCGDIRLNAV

With `C/C(=C\c1ccccc1)CN1CCC(Nc2nccn(CCCN)c2=O)CC1` [1-1], the IC50 is 63.1 nM at hα2A receptor, 6.31 nM on hα2C receptor and 2000 nM at 5HT-Transporter.
On to `C/C(=C\c1ccccc1)CN1CCC(Nc2nccn(CCCN)c2=O)CC1` [1-2], for which the IC50 on hα2A receptor was 39.8 nM.
`C/C(=C\c1ccccc1)CN1CCC(Nc2nccn(CCC(N)=O)c2=O)CC1` [1-3]: the values for the IC50 at hα2A receptor, on hα2C receptor and on 5HT-Transporter were 200 nM, 31.6 nM and over 10000 nM, respectively.
Take `C/C(=C\c1ccccc1)CN1CCC(Nc2nccn(-c3cccc(N)c3)c2=O)CC1` [1-4]: the IC50 on hα2A receptor was 31.6 nM; on hα2C receptor, 5.01 nM; on 5HT-Transporter, 3160 nM.
Turning to `C/C(=C\c1ccccc1)CN1CCC(Nc2nccn(-c3ccc(N)cc3)c2=O)CC1` [1-5], the IC50 is 100 nM on hα2A receptor, 6.31 nM on hα2C receptor and 2000 nM at 5HT-Transporter.
On the same counts, the results for `C/C(=C\c1ccccc1)CN1CCC(Nc2nccn(Cc3ccc(CN)cc3)c2=O)CC1` [1-7] are 15.8 nM, 3.16 nM and 794 nM.
On the same counts, the results for `CNCCCn1ccnc(NC2CCN(C/C(C)=C/c3ccccc3)CC2)c1=O` [1-8] are 50.1 nM, 3.16 nM and 3980 nM.
On the same counts, the results for `CNCc1ccc(Cn2ccnc(NC3CCN(C/C(C)=C/c4ccccc4)CC3)c2=O)cc1` [1-9] are 31.6 nM, 3.98 nM and 1580 nM.
For `CCCNC(=O)Cn1ccnc(NC2CCN(C/C(C)=C/c3ccccc3)CC2)c1=O` [1-10], the IC50 at hα2A receptor was 126 nM; on hα2C receptor it was 10 nM; on 5HT-Transporter, 2000 nM.
On the same counts, the results for `CCCNCc1cccc(-n2ccnc(NC3CCN(C/C(C)=C/c4ccccc4)CC3)c2=O)c1` [1-11] are 3.16 nM, 1 nM and 631 nM.
With `CCCNCc1cccc(-n2ccnc(NC3CCN(C/C(C)=C/c4ccccc4)CC3)c2=O)c1` [1-12], the “h-α2A pIC50” value at hα2A receptor is 8.4. The “h-α2C pIC50” value at hα2C receptor is on record as 9.0. The “h-5HTT pIC50” value on 5HT-Transporter is on record as 6.1.
With `CCCNC(=O)c1ccc(-n2ccnc(NC3CCN(C/C(C)=C/c4ccccc4)CC3)c2=O)cc1` [1-13], the IC50 on hα2A receptor was 79.4 nM; at hα2C receptor, 7.94 nM; at 5HT-Transporter, 398 nM.
For the compound `C/C(=C\c1ccccc1)CN1CCC(Nc2nccn(CCCN(C)C)c2=O)CC1` [1-15], the figures for the IC50 on hα2A receptor, on hα2C receptor and on 5HT-Transporter were 50.1 nM, 3.98 nM and 7940 nM, respectively.
Turning to `CCN(CC)c1cccc(-n2ccnc(NC3CCN(C/C(C)=C/c4ccccc4)CC3)c2=O)c1` [1-17], the IC50 on hα2A receptor was 5.01 nM; on hα2C receptor, 1.58 nM; on 5HT-Transporter it was 1000 nM.
With `CCN(CC)c1ccc(C(=O)Cn2ccnc(NC3CCN(C/C(C)=C/c4ccccc4)CC3)c2=O)cc1` [1-18], the results for the IC50 on hα2A receptor, on hα2C receptor and on 5HT-Transporter were 39.8 nM, 12.6 nM and 1000 nM, respectively.
The matching figures for `CCCN(C)C(=O)Cn1ccnc(NC2CCN(C/C(C)=C/c3ccccc3)CC2)c1=O` [1-19]: 126 nM, 10 nM and 1580 nM.
Take `C/C(=C\c1ccccc1)CN1CCC(Nc2nccn(CC(=O)N(C)C3CCCCC3)c2=O)CC1` [1-20]: the IC50 is 79.4 nM at hα2A receptor, 3.98 nM on hα2C receptor and 1000 nM at 5HT-Transporter.
With `C/C(=C\c1ccccc1)CN1CCC(Nc2nccn(CC(=O)N(C)CCO)c2=O)CC1` [1-21], the IC50 on hα2A receptor is 316 nM; on hα2C receptor, 20 nM; on 5HT-Transporter, 2510 nM.
In the case of `COCCNC(=O)c1ccc(-n2ccnc(NC3CCN(C/C(C)=C/c4ccccc4)CC3)c2=O)cc1` [1-22], the IC50 at hα2A receptor was 100 nM; at hα2C receptor, 12.6 nM; at 5HT-Transporter, 631 nM.
On the same counts, the results for `COCCCNC(=O)Cn1ccnc(NC2CCN(C/C(C)=C/c3ccccc3)CC2)c1=O` [1-23] are 200 nM, 6.31 nM and 2510 nM.
The matching figures for `COCCN(C)C(=O)Cn1ccnc(NC2CCN(C/C(C)=C/c3ccccc3)CC2)c1=O` [1-24]: 126 nM, 7.94 nM and 3160 nM.
In the case of `COCCN(C)Cc1cccc(-n2ccnc(NC3CCN(C/C(C)=C/c4ccccc4)CC3)c2=O)c1` [1-25], the IC50 at hα2A receptor was 5.01 nM; at hα2C receptor it was 1 nM; on 5HT-Transporter, 1580 nM.
As to `C/C(=C\c1ccccc1)CN1CCC(Nc2nccn(CCCNCc3ccccc3)c2=O)CC1` [1-46], the IC50 is 39.8 nM on hα2A receptor and 316 nM on 5HT-Transporter.
Turning to `C/C(=C\c1ccccc1)CN1CCC(Nc2nccn(CCCNCc3ccccc3)c2=O)CC1` [1-47], the figures for the IC50 at hα2A receptor and at 5HT-Transporter were 25.1 nM and 501 nM, respectively.
In the case of `C/C(=C\c1ccccc1)CN1CCC(Nc2nccn(CCN3CCCCC3)c2=O)CC1` [2-4], the IC50 on hα2C receptor was 3.16 nM; on 5HT-Transporter, 2510 nM.
Turning to `C/C(=C\c1ccccc1)CN1CCC(Nc2nccn(CCN3CCOCC3)c2=O)CC1` [2-40], the IC50 on hα2C receptor is 25.1 nM.
On to `COCCn1ccnc(NC2CCN(C/C(C)=C/c3ccccc3)CC2)c1=O` [3-5], for which the IC50 at hα2A receptor is 316 nM; on hα2C receptor it was 39.8 nM.
On the same counts, the results for `C/C(=C\c1ccccc1)CN1CCC(Nc2nccn(-c3ccccn3)c2=O)CC1` [6-9] are 25.1 nM and 5.01 nM.
The matching figures for `C/C(=C\c1ccccc1)CN1CCC(Nc2nccn(-c3ccccn3)c2=O)CC1` [6-10]: 12.6 nM and 3.16 nM.
For `C/C(=C\c1ccccc1)CN1CCC(Nc2ncc[nH]c2=O)CC1` [7-1], the IC50 at hα2A receptor was 100 nM; at hα2C receptor, 31.6 nM.
For `CC(=O)Cn1ccnc(NC2CCN(C/C(C)=C/c3ccccc3)CC2)c1=O` [7-7], the figures for the IC50 on hα2A receptor and on hα2C receptor were 50.1 nM and 12.6 nM, respectively.
On the same counts, the results for `C/C(=C\c1ccccc1)CN1CCN(c2nccn(CCCN3CCCC3=O)c2=O)CC1` [9-1] are 2000 nM and 251 nM.
On to `CN(C)CCCn1ccnc(NC2CCN(C/C=C/c3ccccc3)CC2)c1=O` [16-2], for which the IC50 is 501 nM at hα2A receptor and 63.1 nM on hα2C receptor.

Source of the values: US20090111801A1, “SUBSTITUTED PYRAZINONE DERIVATIVES FOR USE AS A MEDICINE” (Janssen Pharmaceutica N.V., priority 2006, published 2009).
